Our source for the melting point values is patent US11440888B2, “Microbiocidal quinoline carboxamide derivatives” (SYNGENTA CROP PROTECTION AG, priority 2018, dated 2022).

In the case of `Cc1c(NC(=O)C(Cl)(Cc2ccccc2)CC(C)C)cnc2c(F)cccc12` (stereo not drawn) [E.05, 2-benzyl-2-chloro-N-(8-fluoro-4-methyl-3-quinolyl)-4-methyl-pentanamide], the melting point (in general, the temperature, or range, at which the solid turns liquid) is 140 to 141 °C.

`Cc1c(NC(=O)C(Cl)(Cc2ccccc2)CC(F)(F)F)cnc2c(F)cccc12` (stereo not drawn) [E.01, 2-benzyl-2-chloro-4,4,4-trifluoro-N-(8-fluoro-4-methyl-3-quinolyl)butanamide] returned a melting point of 179 to 181 °C.

The molecule `O=C(Nc1cnc2c(F)cccc2c1)C(Cl)(Cc1ccccc1)CC(F)(F)F` (stereo not drawn) [E.06, 2-benzyl-2-chloro-4,4,4-trifluoro-N-(8-fluoro-3-quinolyl)butanamide] displayed a melting point of 106 to 108 °C.
